The numbers were not newly measured in patent US20070298069A1, “Medical devices for release of low solubility therapeutic agents” (Boston Scientific Scimed, Inc., priority 2006, published 2007), which cites them from elsewhere.

For this data set, the system named is most gram positive and gram negative aerobic and anaerobic bacteria, some yeast and fungi. The settings on record: in most organisms tested.

Bounds are passed on as bounds.

For the compound `Oc1cc(Cl)ccc1Oc1ccc(Cl)cc1Cl` [triclosan], the MIC is below 0.3 ppm.
